Consider 1 compound from patent US6558664B1, “Chondrocyte cell-lines” (Cell Factors plc, priority 1994, dated 2003).

Molecules are shown by their SMILES.

This assay deals with chondrocyte cell-lines cloned from foetal femur. Put plainly: Von Kossa staining of calcium mineralisation in monolayer cultures of immortalised foetal femur chondrocyte cell-lines. The class given is cell-based, human. The settings on record: three chondrocyte clones incubated at the oncogene's non-permissive temperature (39° C.) in the presence of 1,25(OH)2D3; in its absence cells do not actively mineralise calcium; FIG. 5. The method, then:
Foetal rib or femur tissue was taken at 7-9 weeks of gestation and placed in tissue culture flasks (Costar Limited, UK) in Eagle's minimum essential medium (Gibco Co Limited, UK) containing antibiotics and L-glutamine as well as 10% heat in activated foetal bovine serum. Cultured cells were maintained in a humidified atmosphere at 5% CO2 and 37° C. and medium changed at regular intervals (2-3 days). As is usual for primary cultures of resected tissue, cells within the sample move out from the body of the tissue, adhere to the flask surface, and replicate, potentially, to cover the whole surface of the tissue culture dish. After an initial period of, say, 2 weeks in primary culture. The cell population was transfected with a temperature sensitive mutant of the simium virus-40 derived large tumour (T) antigen using retroviral transduction.
In short, amphotropically packaged retroviral particles comprising this construct and a resistance marker to geneticin, G418 (kindly donated by Dr M O'Hare, Institute of Cancer Research, Royal Marsden Hospital, Lincoln's Inn, Sutton, Surrey, alternatively, essentially the same construct expressing a temperature sensitive mutant of the SV40-T oncogene was kindly donated by Professor Phil Gaillimore, CRC Laboratories, University of Birmingham, UK) was added to the medium together with polybrene (Sigma Chemicals) to a final concentration of 0.8 mg/ml. […]

As to `C=C1/C(=C\C=C2/CCC[C@]3(C)[C@@H]([C@H](C)CCCC(C)(C)O)CC[C@@H]23)C[C@@H](O)C[C@@H]1O` [1,25(OH)2D3], the “calcium mineralisation (Von Kossa staining)” value is given as “each clone actively mineralises calcium”.
